Reference: article doi:10.1101/2025.02.17.638454, “Synergistic RAS-MAPK and AKT Activation in MYC-Driven Tumors via Adjacent PVT1 Rearrangements” (bioRxiv, 2025)
No end group written: not given here.

Tests used:
recombinant KRAS protein = molecular target: T1, recombinant KRAS protein (Homo sapiens, UniProt P01116); experiment: Isothermal titration calorimetry of HNB into recombinant KRAS; type: binding; conditions: ITC, pH 8.0, 25°C, N 1 (fixed)
T1 construct: purchased Abcam ab156968
Method: Isothermal titration calorimetry (ITC) measures the change in temperature when two or more biomolecules bind to each other in a solution. The assay provides the binding affinity of ligands to proteins and the entropy or enthalpy of the reaction. Recombinant KRAS protein (#ab156968, Abcam) was dialyzed into the ITC assay buffer (20mM Tris pH 8.0, 100mM NaCl, 5mM Beta-mercaptoethanol) and concentrated to about 100 μM. During ITC titration twenty 6 μl injections (with intervals of 150 seconds) of 500μM HNB were made into the ITC cell containing 93 μM KRAS. Titration of 500μM HNB into the ITC assay buffer under the same conditions was used as the baseline control. ITC experiments were performed using Affinity ITC instrument (TA Instruments) at 25°C. The data was fitted and analyzed using NanoAnalyze software provided by TA Instruments. […]
bioRxiv preprint doi: https://doi.org/10.1101/2025.02.17.638454; this version posted February 22, 2025. The copyright holder for this preprint (which was not certified by peer review) is the author/funder, who has granted bioRxiv a license to display the preprint in perpetuity. It is made available under aCC-BY 4.0 International license. […]

SK-PN-DW cells = experiment: Proliferation assay SK-PN-DW; type: cell-based, human; conditions: si.CircPVT1 vs si.Ctrl, n=3, two-way ANOVA, P<0.0001
Source text: Cancer cell lines: COLO-320DM, SK-PN-DW, U2OS, BxPC-3, DU145, SKBR-3 and, NCI-H1792 were obtained from American Type Culture Collection (Rockville, MD) and grown in their required growth medium per the American Type Culture Collection description. D458 and MB002 were obtained from Dr. Michael Taylor’s lab at SickKids hospital, Toronto. Cell line identity for the master stocks were verified by STR genotyping (IDEXX BioResearch)

MYC targets genes = experiment: GSEA MYC targets, D458; type: cell-based, human; conditions: D458, si.CircPVT1 vs si.Ctrl, n=3
Source text: RNAseq processing: Raw reads were mapped to the hg19 human reference genome using the STAR aligner (v.2.5.0a) 66. PCR-duplicated reads and low mapping quality reads (MQ score below 20) were removed using Picard tools and SAMtools, respectively. Aligned reads were counted using htseq-count (v.0.6.1p1) 69 and normalized according to size factors method from DESeq2 70. We used fold change ≥2 and FDR <0.05 as the determination of differentially expressed genes (DEG). Statistical analysis and plots were performed inside R environment version 3.1.0. upload files)

[1] = system: HALLMARK_MTORC1_SIGNALING; experiment: GSEA MTORC1 signaling, COLO320DM; type: cell-based, human; conditions: si.CircPVT1 vs si.Ctrl, n=3, Padj = 0.0188
Source text: RNAseq processing: Raw reads were mapped to the hg19 human reference genome using the STAR aligner (v.2.5.0a) 66. PCR-duplicated reads and low mapping quality reads (MQ score below 20) were removed using Picard tools and SAMtools, respectively. Aligned reads were counted using htseq-count (v.0.6.1p1) 69 and normalized according to size factors method from DESeq2 70. We used fold change ≥2 and FDR <0.05 as the determination of differentially expressed genes (DEG). Statistical analysis and plots were performed inside R environment version 3.1.0. upload files) […]
bioRxiv preprint doi: https://doi.org/10.1101/2025.02.17.638454; this version posted February 22, 2025. The copyright holder for this preprint (which was not certified by peer review) is the author/funder, who has granted bioRxiv a license to display the preprint in perpetuity. It is made available under a CC-BY 4.0 International license . […]
Supplementary Figure 11: Gene set enrichment analysis scores (GSEA) analysis of genes involved in MTORC 1 signaling in COLO320DM (A) and SK-PN-DW (B) treated with si.CircPVT 1. si.Ctrl was used as control. n=3, for each treatment condition .
(also on this page, place not known: SK-PN-DWB MTORC1 si.CircPVT1. condition. Enrichment Score Enrichment Score .CC-BY licenseavailable preprintthis https://doi.org/10.1101/2025.02.17.638454doi:) […]

HALLMARK_MYC_TARGETS = experiment: GSEA MYC targets, COLO320DM; type: cell-based, human; conditions: si.CircPVT1 vs si.Ctrl
Source text: RNAseq processing: Raw reads were mapped to the hg19 human reference genome using the STAR aligner (v.2.5.0a) 66. PCR-duplicated reads and low mapping quality reads (MQ score below 20) were removed using Picard tools and SAMtools, respectively. Aligned reads were counted using htseq-count (v.0.6.1p1) 69 and normalized according to size factors method from DESeq2 70. We used fold change ≥2 and FDR <0.05 as the determination of differentially expressed genes (DEG). […]
Supplementary Figure 9: Gene set enrichment analysis scores (GSEA) analysis for MYC targets genes in COLODM320 (A,B) and SK-PN-DW (C,D) treated with si.CircPVT 1. si.Ctrl was used as control . n=3, for each treatment condition .
(also on this page, place not known: Enrichment Score Enrichment Score si.CircPVT1. control. condition. Enrichment Score Enrichment Score .CC-BY licenseavailable preprintthis https://doi.org/10.1101/2025.02.17.638454doi:) […]

T1 sequence (P01116 1-188 isoform P01116-2): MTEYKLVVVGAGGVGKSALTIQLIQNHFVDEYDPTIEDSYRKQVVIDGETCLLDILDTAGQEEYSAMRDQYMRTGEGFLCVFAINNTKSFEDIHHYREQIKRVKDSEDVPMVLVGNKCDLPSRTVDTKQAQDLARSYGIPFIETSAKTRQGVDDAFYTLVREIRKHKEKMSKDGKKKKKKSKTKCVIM

Row | Substance | -TDS (recombinant KRAS protein) [kcal/mol] | DH (recombinant KRAS protein) [kcal/mol] | cellular proliferation (SK-PN-DW cells) | MYC targets (GSEA) (MYC targets genes) | NES, HALLMARK_MTORC1_SIGNALING [1] | NES, HALLMARK_MYC_TARGETS_V1 (HALLMARK_MYC_TARGETS; n=3, Padj = 0.009) | NES, HALLMARK_MYC_TARGETS_V2 (HALLMARK_MYC_TARGETS; n=3, Padj = 0.017)
1 | MKTQLGAVKGFLHV [HNB] | -0.7 ± 1.5 | -4 ± 2 | – | – | – | – | –
2 | si.CircPVT1: siRNA targeting the junction sequence of CircPVT1, 5’-UGGGCUUGAGGCCUGAUCUUU-3’ (other strand not given here) | – | – | reduced cellular proliferation | depletion of MYC targets | -1.506 | -1.990 | -1.733
